Test results taken from patent publication US9499530B2 (HANGZHOU MINSHENG INSTITUTES FOR PHARMA RESEARCH, priority 2011, dated 2016).
Entries after “also recorded” stand apart in the source; their conditions may differ.

Assays:
[1] = biological target: EGFR (Epidermal Growth Factor Receptor 1) (Homo sapiens, UniProt P00533); experiment: ELISA protein tyrosine kinase inhibition, EGFR; type: biochemical; details: ELISA, Poly(Glu, Tyr) 4:1 substrate, ATP 5 μM, test samples at 10-5 mol/l; read-out: EGFR inhibitory activity (IC50 class)
Description: (§1) Determining the Effect of Test Samples at a Concentration of 10-5 Mol/l on the Activity of the Substrate Phosphoryation Catalyzed by EGFR (Epidermal Growth Factor Receptor 1), ErbB-2 (Epidermal Growth Factor Receptor 2), ErbB-4, KDR (Vascular Endothelial Growth Factor Receptor 2) Protein Tyrosine Kinases at Molecular Level
(§2) Enzyme-Linked Immunosorbent Assay (ELISA)
(§3) Main instrument: wavelength-tunable microplate reader (VERSAmax).
(§4) Main reagents: kinase reaction substrate Poly(Glu, Tyr) 4:1 from Sigma; anti-phosphotyrosine monoclonal antibody PY99 from Santa Cruz; horseradish peroxidase-labeled goat anti-mouse IgG from Calbiochem; ATP, DTT, OPD from Amresco, and ELISA plate from Corning.
(§5) Poly(Glu, Tyr)4:1 as an enzyme substrate was diluted by potassium ion-free PBS into 20 μg/ml, and an ELISA plate was coated and subjected to reaction for 12-16 h at 37° C. After the liquid in wells was removed, the plate was washed three time by T-PBS, 5 min for each time. The ELISA plate was then dried in an oven at 37° C. The coated wells were added with the test samples: the test samples were prepared for a stock solution with a concentration of 1×10^−2M in DMSO. The aliquot solution was stored at −20° C., and diluted to the desired concentration with reaction buffer before use. The resulting solution was added into the wells so that the final concentration of 10-5 mol/l in 100 μL reaction system can be obtained. At the same time, a positive control well was set up and a positive control compound Su11248 was added. ATP and test tyrosine kinases were added: ATP solution diluted with reaction buffer was added (the final concentration of ATP is 5 μM). Finally, the test tyrosine kinases solution diluted with reaction buffer was added. The total volume of the reaction system was […]. Meanwhile, a negative control well and a control well without enzyme were set up. The reaction system was placed in a wet box, and shaked for 1 hour at 37° C., shielding from light. After the reaction was complete, the plate was washed by T-PBS three times. Antibody PY99 was added at 100 μL/well; and the plate was shaked for 30 min at 37° C. After the reaction was complete, the plate was washed with T-PBS three times. Horseradish peroxidase-labeled goat anti-mouse IgG was added at 100 μL/well, and the plate was shaked for 30 min at 37° C. The plate was washed with T-PBS three times. OPD developing liquid was added at 100 μL/well, and reacted for 1-10 min at room temperature, shielding from light. 50 μL of 2 M H2SO4 was added to stop the reaction. A492 value was determined using wavelength-tunable microplate reader. The inhibition ratio of the samples can be calculated by the following equation: […]

NCI-H1975 xenograft = experiment: Growth inhibition of NCI-H1975 xenograft in nude mice; type: in vivo; details: for T/C (%) / Tumor volume (mm^3) D 28: 5 consecutive days weekly for four weeks, D 28; for activity against NC1-H1975 (in words): tumor line with gene mutation, resistant to lapatinib
Method: Administration route: intragastric administration. Administration volume: 0.1 ml/10 g. Administration and frequency: administrating for 5 consecutive days and suspending administration for two days weekly for four weeks. Observation time: continuous observation for 28 days after starting administration. The tumor volume was measured twice a week. At the end of the experiment, the animals were sacrificed, weighed and photographed. Statistical method: SPSS 10.0 statistical software package, one-factor analysis of variance.

[2] = biological target: KDR (Vascular Endothelial Growth Factor Receptor 2) (Homo sapiens, UniProt P35968); experiment: ELISA protein tyrosine kinase inhibition, KDR; type: biochemical; details: for IC50: ELISA, Poly(Glu, Tyr) 4:1 substrate, ATP 5 μM, test samples at 10-5 mol/l, read-out: KDR inhibitory activity (IC50 class)
Description: as §1, §2, §3, §4, §5

[3] = test system: human lung cancer A549 xenograft; experiment: Growth inhibition of A549 xenograft in nude mice; type: in vivo; details: for TV (mm^3) End / TV (mm^3) Start / T/C (%): A549 xenograft; for TV (mm^3) End / TV (mm^3) Start / T/C (%) / Weight (g) End / Weight (g) Start: 200 mg/kg intragastric; for TV (mm^3) End / T/C (%) / Weight (g) End: 5 times per week for four weeks; for TV (mm^3) Start / Weight (g) Start: start of dosing; for T/C (%): relative tumor growth ratio; for Weight (g) End / Weight (g) Start: nude mice with A549 xenograft
Description: Objective of the test: Determining the inhibition of some compounds of the present invention to the growth of human lung cancer A549 transplanted into nude mice and the action intensity thereof.
1. Human lung cancer A549 xenograft in nude mice, which was set up by subcutaneously transplantion of the human lung cancer A549 cell lines into right axillary fossa of nude mice. The amount of inoculation is 2×10^6 cells/mouse. Xenograft inoculated into the nude mice was passaged for 3 generations before use.
2. The solvent used in the experiments is: 0.5% of hydroxypropylmethyl cellulose and 0.1% of Tween-80.
3. Vigorous growing tumor tissues were selected to be chopped into approximately 1 mm^3. Under sterile conditions, the tumor tissue blocks were subcutaneously transplanted into right axillary fossa of nude mice. The diameters of the xenograft in nude mice were measured with a vernier caliper. When tumors reached approximately 100-300 mm^3 in size, the animals were randomly divided into groups, wherein there are 12 animals in solvent control group, and 6 animals per group in the other groups. […] The administered dosages were both 200 mg/kg, 5 times per week for consecutive four weeks. The diameters of the tumors were measured twice per week. The negative control group was intragastricly administrated the same amount of solvent. After the experiment, the mice were sacrificed. The tumors were surgically stripped and weighed. The tumor volume (TV) was calculated by the following equation:
[formula] in which a and b represents for the length and the width respectively.
According to the measured results, the relative tumor volume (RTV) was calculated. The calculation equation was: RTV=Vt/V0, wherein V0 is the tumor volume measured during cage administration (i.e. d0), Vt is the tumor volume of each measurement. The evaluation index of anti-tumor activity was the relative tumor growth ratio T/C (%), which was calculated by the following equation: […]
TRTV: treatment group's RTV; CRTV: negative control group's RTV.

ErbB-4 = ErbB-4 (Homo sapiens, UniProt Q15303); experiment: ELISA protein tyrosine kinase inhibition, ErbB-4; type: biochemical; details: ELISA, Poly(Glu, Tyr) 4:1 substrate, ATP 5 μM, test samples at 10-5 mol/l; read-out: ErbB4 inhibitory activity (IC50 class)
Description: as §1, §2, §3, §4, §5

[4] = biological target: ErbB-2 (Epidermal Growth Factor Receptor 2) (Homo sapiens, UniProt P04626); experiment: ELISA protein tyrosine kinase inhibition, ErbB-2; type: biochemical; details: Poly(Glu, Tyr) 4:1 substrate, ATP 5 μM, test samples at 10-5 mol/l, read-out: ErbB2 inhibitory activity (IC50 class)
Description: as §1, §2, §3, §4, §5

[5] = NC1-H1975 xenograft, intragastric

ErbB-4, sequence (Q15303 26-1308): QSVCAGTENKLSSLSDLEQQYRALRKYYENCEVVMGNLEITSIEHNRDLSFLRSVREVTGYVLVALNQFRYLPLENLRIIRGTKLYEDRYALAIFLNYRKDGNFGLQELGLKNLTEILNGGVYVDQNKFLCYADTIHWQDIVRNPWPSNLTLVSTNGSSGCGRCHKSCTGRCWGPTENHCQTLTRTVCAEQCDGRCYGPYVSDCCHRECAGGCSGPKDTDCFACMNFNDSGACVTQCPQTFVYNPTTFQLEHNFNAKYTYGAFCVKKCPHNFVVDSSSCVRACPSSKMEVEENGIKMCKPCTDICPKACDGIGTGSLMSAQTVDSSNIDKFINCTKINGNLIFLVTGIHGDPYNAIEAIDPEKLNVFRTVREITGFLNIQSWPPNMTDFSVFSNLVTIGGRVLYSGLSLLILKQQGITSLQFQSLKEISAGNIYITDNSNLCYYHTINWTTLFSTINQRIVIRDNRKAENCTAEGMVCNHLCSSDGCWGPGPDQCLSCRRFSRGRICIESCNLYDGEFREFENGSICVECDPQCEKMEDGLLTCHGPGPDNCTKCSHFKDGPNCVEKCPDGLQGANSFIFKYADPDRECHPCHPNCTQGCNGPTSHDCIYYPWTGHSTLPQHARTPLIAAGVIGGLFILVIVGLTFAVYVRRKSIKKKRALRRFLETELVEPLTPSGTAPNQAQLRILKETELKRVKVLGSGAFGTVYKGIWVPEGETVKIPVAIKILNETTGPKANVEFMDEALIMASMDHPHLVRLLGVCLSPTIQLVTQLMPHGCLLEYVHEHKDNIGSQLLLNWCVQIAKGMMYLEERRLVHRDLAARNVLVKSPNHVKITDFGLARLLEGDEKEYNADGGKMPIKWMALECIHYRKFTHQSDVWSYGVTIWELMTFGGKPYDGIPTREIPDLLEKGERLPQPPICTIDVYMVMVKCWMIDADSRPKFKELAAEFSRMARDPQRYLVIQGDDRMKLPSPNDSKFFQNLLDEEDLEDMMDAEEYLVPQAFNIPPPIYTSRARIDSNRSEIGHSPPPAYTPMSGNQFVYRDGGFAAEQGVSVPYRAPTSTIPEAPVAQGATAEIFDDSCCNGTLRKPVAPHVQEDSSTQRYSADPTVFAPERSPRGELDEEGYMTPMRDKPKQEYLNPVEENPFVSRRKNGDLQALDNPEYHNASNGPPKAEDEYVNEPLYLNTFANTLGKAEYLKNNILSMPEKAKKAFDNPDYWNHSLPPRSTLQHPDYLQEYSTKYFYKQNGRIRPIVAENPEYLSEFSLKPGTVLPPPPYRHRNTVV
KDR (Vascular Endothelial Growth Factor Receptor 2), sequence (P35968 20-1356): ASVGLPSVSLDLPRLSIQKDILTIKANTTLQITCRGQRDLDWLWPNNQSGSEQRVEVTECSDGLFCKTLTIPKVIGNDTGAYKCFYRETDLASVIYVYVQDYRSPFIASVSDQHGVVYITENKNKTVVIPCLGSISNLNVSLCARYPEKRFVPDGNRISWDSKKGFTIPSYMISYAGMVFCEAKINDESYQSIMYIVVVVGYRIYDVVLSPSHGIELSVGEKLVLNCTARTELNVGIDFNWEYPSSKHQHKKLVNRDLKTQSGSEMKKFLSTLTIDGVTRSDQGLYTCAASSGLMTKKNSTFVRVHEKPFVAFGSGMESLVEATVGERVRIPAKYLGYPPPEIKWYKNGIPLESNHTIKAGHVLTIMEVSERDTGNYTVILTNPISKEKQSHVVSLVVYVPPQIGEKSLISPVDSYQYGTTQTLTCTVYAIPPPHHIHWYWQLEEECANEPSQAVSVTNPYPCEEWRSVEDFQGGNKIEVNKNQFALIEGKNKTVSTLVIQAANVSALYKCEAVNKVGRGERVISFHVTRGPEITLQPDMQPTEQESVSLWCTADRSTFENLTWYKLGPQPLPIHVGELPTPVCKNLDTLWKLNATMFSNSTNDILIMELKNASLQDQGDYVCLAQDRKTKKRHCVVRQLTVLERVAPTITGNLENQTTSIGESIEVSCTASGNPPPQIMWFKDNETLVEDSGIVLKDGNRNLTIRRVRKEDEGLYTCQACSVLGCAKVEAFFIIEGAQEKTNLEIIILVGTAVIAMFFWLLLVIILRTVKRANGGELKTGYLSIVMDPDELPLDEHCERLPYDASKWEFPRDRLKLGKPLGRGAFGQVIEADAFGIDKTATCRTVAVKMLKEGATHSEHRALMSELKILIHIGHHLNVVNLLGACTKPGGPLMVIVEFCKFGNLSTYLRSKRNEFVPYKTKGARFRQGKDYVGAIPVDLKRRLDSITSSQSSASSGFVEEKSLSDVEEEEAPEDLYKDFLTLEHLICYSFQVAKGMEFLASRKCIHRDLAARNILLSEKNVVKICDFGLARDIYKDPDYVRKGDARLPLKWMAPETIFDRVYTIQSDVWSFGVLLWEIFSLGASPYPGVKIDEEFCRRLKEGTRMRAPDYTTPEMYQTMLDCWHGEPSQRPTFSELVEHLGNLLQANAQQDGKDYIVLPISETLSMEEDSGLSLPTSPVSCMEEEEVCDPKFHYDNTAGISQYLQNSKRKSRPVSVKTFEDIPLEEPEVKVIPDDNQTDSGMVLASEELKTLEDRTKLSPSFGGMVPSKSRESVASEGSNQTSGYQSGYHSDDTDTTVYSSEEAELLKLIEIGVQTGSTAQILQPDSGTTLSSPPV
EGFR (Epidermal Growth Factor Receptor 1), sequence (P00533 25-1210): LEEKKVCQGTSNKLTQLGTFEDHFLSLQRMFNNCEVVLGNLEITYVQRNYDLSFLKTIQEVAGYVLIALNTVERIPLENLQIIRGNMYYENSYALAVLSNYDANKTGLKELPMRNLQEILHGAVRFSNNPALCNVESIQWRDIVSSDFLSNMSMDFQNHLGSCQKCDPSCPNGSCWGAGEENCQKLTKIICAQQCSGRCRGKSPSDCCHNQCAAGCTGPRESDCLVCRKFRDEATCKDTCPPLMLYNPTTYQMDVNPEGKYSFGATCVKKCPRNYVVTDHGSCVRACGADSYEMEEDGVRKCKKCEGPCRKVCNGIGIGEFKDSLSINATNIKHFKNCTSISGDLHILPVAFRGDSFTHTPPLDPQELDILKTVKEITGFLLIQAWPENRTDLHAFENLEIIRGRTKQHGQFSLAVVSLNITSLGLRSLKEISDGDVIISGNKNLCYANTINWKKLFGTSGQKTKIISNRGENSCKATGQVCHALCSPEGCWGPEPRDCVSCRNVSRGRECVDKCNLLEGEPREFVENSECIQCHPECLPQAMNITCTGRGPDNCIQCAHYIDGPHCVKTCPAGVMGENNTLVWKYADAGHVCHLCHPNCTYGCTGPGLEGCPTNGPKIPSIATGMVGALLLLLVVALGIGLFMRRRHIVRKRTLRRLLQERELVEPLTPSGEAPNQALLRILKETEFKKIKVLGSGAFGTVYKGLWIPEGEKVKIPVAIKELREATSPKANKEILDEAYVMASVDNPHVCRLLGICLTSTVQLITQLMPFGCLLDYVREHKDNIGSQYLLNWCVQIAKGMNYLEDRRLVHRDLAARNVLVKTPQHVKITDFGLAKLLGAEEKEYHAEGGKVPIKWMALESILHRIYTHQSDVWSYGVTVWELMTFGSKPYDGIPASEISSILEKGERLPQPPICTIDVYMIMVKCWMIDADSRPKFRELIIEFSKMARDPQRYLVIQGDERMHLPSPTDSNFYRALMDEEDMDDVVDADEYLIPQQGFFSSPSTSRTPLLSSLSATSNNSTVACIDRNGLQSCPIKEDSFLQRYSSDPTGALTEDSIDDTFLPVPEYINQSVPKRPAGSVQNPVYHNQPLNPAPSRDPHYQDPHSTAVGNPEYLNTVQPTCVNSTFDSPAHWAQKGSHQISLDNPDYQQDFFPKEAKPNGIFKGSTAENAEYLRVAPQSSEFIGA
ErbB-2 (Epidermal Growth Factor Receptor 2), sequence (P04626 23-1255): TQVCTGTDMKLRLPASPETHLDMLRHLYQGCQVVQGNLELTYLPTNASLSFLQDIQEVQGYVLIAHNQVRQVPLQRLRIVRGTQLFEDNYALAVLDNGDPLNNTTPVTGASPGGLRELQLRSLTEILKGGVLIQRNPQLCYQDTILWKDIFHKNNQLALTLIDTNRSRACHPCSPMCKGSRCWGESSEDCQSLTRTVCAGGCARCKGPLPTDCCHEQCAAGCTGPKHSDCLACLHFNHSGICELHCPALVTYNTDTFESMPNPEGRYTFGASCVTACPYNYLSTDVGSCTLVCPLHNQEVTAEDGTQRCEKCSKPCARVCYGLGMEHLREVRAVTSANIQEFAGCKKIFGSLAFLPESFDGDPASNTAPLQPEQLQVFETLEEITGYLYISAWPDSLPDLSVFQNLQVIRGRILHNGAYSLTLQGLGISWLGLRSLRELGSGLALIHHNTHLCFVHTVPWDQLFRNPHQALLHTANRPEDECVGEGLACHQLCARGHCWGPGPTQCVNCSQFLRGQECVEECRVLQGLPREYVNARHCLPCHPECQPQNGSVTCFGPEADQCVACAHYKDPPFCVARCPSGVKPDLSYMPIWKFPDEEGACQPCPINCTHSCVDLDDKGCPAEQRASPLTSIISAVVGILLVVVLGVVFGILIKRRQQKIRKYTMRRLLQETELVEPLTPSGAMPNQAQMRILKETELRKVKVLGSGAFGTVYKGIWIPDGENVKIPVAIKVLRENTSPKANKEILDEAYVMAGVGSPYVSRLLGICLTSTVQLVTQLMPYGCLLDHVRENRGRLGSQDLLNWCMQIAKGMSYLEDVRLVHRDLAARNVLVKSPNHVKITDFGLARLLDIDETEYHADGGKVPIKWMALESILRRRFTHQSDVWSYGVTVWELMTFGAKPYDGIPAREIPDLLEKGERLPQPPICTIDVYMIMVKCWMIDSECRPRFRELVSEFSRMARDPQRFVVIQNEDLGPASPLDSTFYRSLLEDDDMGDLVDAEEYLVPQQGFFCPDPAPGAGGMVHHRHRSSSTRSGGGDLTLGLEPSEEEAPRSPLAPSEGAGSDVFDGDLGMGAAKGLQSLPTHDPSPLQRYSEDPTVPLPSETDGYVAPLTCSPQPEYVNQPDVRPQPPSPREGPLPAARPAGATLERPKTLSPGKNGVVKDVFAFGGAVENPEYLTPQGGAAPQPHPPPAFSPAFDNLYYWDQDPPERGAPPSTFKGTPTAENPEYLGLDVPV

| SMILES | IC50 [1] | T/C (%) (NCI-H1975 xenograft; [5]) | Tumor volume (mm^3) D 28 (NCI-H1975 xenograft; [5]) | Tumor volume (mm^3) D 0 (NCI-H1975 xenograft; NC1-H1975 xenograft, intragastric, D 0) | activity against NC1-H1975 (in words) (NCI-H1975 xenograft) | IC50 [2] | TV (mm^3) End [3] | TV (mm^3) Start [3] | T/C (%) [3] | Weight (g) End [3] | Weight (g) Start [3] | IC50 (ErbB-4) | IC50 [4] | inhibitory activity against KDR (in words) [2] | growth inhibition of human lung cancer A549 compared with positive control lapatinib (in words) ([3]; xenograft in nude mice, 200 mg/kg) |
| --- | --- | --- | --- | --- | --- | --- | --- | --- | --- | --- | --- | --- | --- | --- | --- |
| OCCNCc1ccc(-c2ccc3ncnc(Nc4ccc(OCc5cccc(F)c5)c(Cl)c4)c3c2)o1 [MS27·dimethanesulfonate, N-(3-chloro-4-((3-fluorobenzyl)oxy)phenyl)-6-(5-(((2-hydroxyethyl)amino)methyl)-2-furyl)-4-quinazolinamine] | < 10 µM | 49.8^★ % | 1214.25 ± 944.16^★ mm^3 | 97.06 ± 38.91 mm^3 | good activity | < 10 µM | 775.6 ± 215.4^▴ mm^3 | 155.3 ± 71.2 mm^3 | 36.4% | 25.6 ± 2.2 g | 25.0 ± 2.7 g | < 10 µM | < 10 µM | – | – |
| OCCCCNCc1ccc(-c2ccc3ncnc(Nc4ccc(OCc5cccc(F)c5)c(Cl)c4)c3c2)o1 [MS1·dimethanesulfonate, N-(3-chloro-4-((3-fluorobenzyl)oxy)phenyl)-6-(5-(((4-hydroxybutyl)amino)methyl)-2-furyl)-4-quinazolinamine] | < 10 µM | – | – | – | – | < 10 µM | – | – | – | – | – | < 10 µM | < 10 µM | – | – |
| COc1cc2ncnc(Nc3ccc(F)c(Cl)c3)c2cc1OCCCN1CCOCC1 [Gefitinib] | – | 87.89% | 2164.44 ± 1064.85 mm^3 | – | almost no activity | – | – | – | – | – | – | – | – | – | – |
| CS(=O)(=O)CCNCc1ccc(-c2ccc3ncnc(Nc4ccc(OCc5cccc(F)c5)c(Cl)c4)c3c2)o1 [Lapatinib, lapatinib, reference compound] | – | 104.26% | 2420.50 ± 1405.01 mm^3 | – | – | – | 943.2 ± 225.7^▴ mm^3 | 153.6 ± 64.8 mm^3 | – | 26.3 ± 3.3 g | 24.1 ± 2.9 g | – | – | – | – |
| OCCN(CCO)Cc1ccc(-c2ccc3ncnc(Nc4ccc(OCc5cccc(F)c5)c(Cl)c4)c3c2)o1 [MS18·dimethanesulfonate, N-(3-chloro-4-((3-fluorobenzyl)oxy)phenyl)-6-(5-((bis(2-hydroxyethyl)amino)methyl)-2-furyl)-4-quinazolinamine] | < 10 µM | – | – | – | – | < 10 µM | – | – | – | – | – | < 10 µM | < 10 µM | – | – |
| CC(=O)OCCNCc1ccc(-c2ccc3ncnc(Nc4ccc(OCc5cccc(F)c5)c(Cl)c4)c3c2)o1 | < 10 µM | – | – | – | – | < 10 µM | – | – | – | – | – | < 10 µM | < 10 µM | – | – |
| OCCCNCc1ccc(-c2ccc3ncnc(Nc4ccc(OCc5cccc(F)c5)c(Cl)c4)c3c2)o1 [MS42·di-p-toluenesulfonate, N-(3-chloro-4-((3-fluorobenzyl)oxy)phenyl)-6-(5-(((3-hydroxypropyl)amino)methyl)-2-furyl)-4-quinazolinamine] | < 10 µM | – | – | – | – | < 10 µM | – | – | – | – | – | < 10 µM | < 10 µM | – | – |
| O=C(O)CCC(NCc1ccc(-c2ccc3ncnc(Nc4ccc(OCc5cccc(F)c5)c(Cl)c4)c3c2)o1)C(=O)O (stereo not shown) [MS 23, N-(3-chloro-4-((3-fluorobenzyl)oxy)phenyl)-6-(5-(((1,3-dicarboxypropyl)amino)methyl)-2-furyl)-4-quinazolinamine] | < 10 µM | – | – | – | – | < 10 µM | 804.3 ± 230.3^▴ mm^3 | 153.5 ± 74.8 mm^3 | 38.2% | 25.7 ± 2.0 g | 25.3 ± 1.5 g | < 10 µM | < 10 µM | better inhibitory activity; also recorded: higher inhibitory activity | better effective inhibition; also recorded: better growth inhibition effect |
| OCC(CO)NCc1ccc(-c2ccc3ncnc(Nc4ccc(OCc5cccc(F)c5)c(Cl)c4)c3c2)o1 [MS6·dimethanesulfonate, N-(3-chloro-4-((3-fluorobenzyl)oxy)phenyl)-6-((5-(2-(1,3-dihydroxypropyl)amino)methyl)-2-furyl)-4-quinazolinamine] | < 10 µM | – | – | – | – | < 10 µM | 844.5 ± 240.3^▴ mm^3 | 156.9 ± 64.5 mm^3 | 39.3% | 25.2 ± 1.4 g | 24.9 ± 1.3 g | < 10 µM | < 10 µM | – | – |
